The target of the test is unphosphorylated-BTK kinase domain (UP-BTK), GST-tagged human BTK (389-659aa) (Homo sapiens (Human), UniProt Q06187). Kind of test: BTK Kinase Lanthascreen Binding Assay. Particulars: compound, 50 nM Tracer 236, 2 nM anti-GST antibody, 60 minutes; pIC50 = negative log of the IC50 in molar. As for the experimental part: BTK Kinase Lanthascreen Binding Assay:
A BTK kinase lanthascreen binding assay monitors compound binding to unphosphorylated-BTK kinase domain (UP-BTK), by competing with a fluorescent labeled tracer. […] Data were analyzed using Xlfit™ version 5.3 from ID Business Solutions (Guildford), Microsoft Excel add-in. pIC50 refers to the negative log of the IC50 in molar.

Ten compounds from patent publication US10934310B2, “Inhibitors of Bruton's tyrosine kinase and method of their use” (JANSSEN PHARMACEUTICA NV, priority 2015, dated 2021) can be followed below.

unphosphorylated-BTK kinase domain (UP-BTK), GST-tagged human BTK (389-659aa), sequence (Q06187 389-659): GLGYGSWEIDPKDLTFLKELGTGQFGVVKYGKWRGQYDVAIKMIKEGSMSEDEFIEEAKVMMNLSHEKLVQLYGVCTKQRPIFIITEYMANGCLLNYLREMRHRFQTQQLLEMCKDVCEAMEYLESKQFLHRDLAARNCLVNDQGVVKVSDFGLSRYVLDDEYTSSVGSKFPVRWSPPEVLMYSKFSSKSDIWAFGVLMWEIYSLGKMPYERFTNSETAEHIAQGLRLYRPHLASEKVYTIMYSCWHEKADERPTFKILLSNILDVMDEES

On to `Cc1cc(Oc2ccccc2)ccc1N1C(=O)Nc2c(C(=O)N[C@H]3CC[C@@H](NC(=O)/C(C#N)=C/C4CC4)CC3)sc3nccc1c23` [Example 19, N-((1S,4S)-4-((E)-2-Cyano-3-cyclopropylacrylamido)cyclohexyl)-5-(2-methyl-4-phenoxyphenyl)-4-oxo-4,5-dihydro-3H-1-thia-3,5,8-triazaacenaphthylene-2-carboxamide], for which the “BTK_I_binding pIC50” value is recorded as 6.63.

As to `Cc1cc(Oc2ccccc2)ccc1N1C(=O)Nc2c(C(=O)N[C@H]3CCC[C@@H]3O)sc3nccc1c23` [Example 20, N-((1S,2S)-2-Hydroxycyclopentyl)-5-(2-methyl-4-phenoxyphenyl)-4-oxo-4,5-dihydro-3H-1-thia-3,5,8-triazaacenaphthylene-2-carboxamide], the “BTK_I_binding pIC50” value turned out to be 7.02.

Regarding `CN[C@@H]1CCC[C@H]1NC(=O)c1sc2nccc3c2c1NC(=O)N3c1ccc(Oc2ccccc2)cc1C` [Example 21, 5-(2-Methyl-4-phenoxyphenyl)-N-((1R,2R)-2-(methylamino)cyclopentyl)-4-oxo-4,5-dihydro-3H-1-thia-3,5,8-triazaacenaphthylene-2-carboxamide], the “BTK_I_binding pIC50” value came to 6.85.

On to `Cc1cc(Oc2ccccc2)ccc1N1C(=O)Nc2c(C(=O)N[C@@H]3CCC[C@H]3N)sc3nccc1c23` [Example 22, N-((1R,2R)-2-Aminocyclopentyl)-5-(2-methyl-4-phenoxyphenyl)-4-oxo-4,5-dihydro-3H-1-thia-3,5,8-triazaacenaphthylene-2-carboxamide], for which the “BTK_I_binding pIC50” value is 7.13.

On to `Cc1cc(Oc2ccccc2)ccc1N1C(=O)Nc2c(C(=O)N[C@H]3CC[C@@H](NC#N)CC3)sc3nccc1c23` [Example 23, N-((1S,4S)-4-Cyanamidocyclohexyl)-5-(2-methyl-4-phenoxyphenyl)-4-oxo-4,5-dihydro-3H-1-thia-3,5,8-triazaacenaphthylene-2-carboxamide], for which the “BTK_I_binding pIC50” value stood at 6.77.

Turning to `Cc1cc(Oc2ccccc2)ccc1N1C(=O)Nc2c(C(=O)N[C@@H]3CCC[C@H](N(C)C)C3)sc3nccc1c23` [Example 24, N-((1R,3S)-3-(Dimethylamino)cyclohexyl)-5-(2-methyl-4-phenoxyphenyl)-4-oxo-4,5-dihydro-3H-1-thia-3,5,8-triazaacenaphthylene-2-carboxamide], the “BTK_I_binding pIC50” value was 6.59.

Regarding `Cc1cc(Oc2ccccc2)ccc1N1C(=O)Nc2c(C(=O)N[C@H]3CC[C@@H](N)CC3)sc3nccc1c23` [Example 25, N-((1S,4S)-4-Aminocyclohexyl)-5-(2-methyl-4-phenoxyphenyl)-4-oxo-4,5-dihydro-3H-1-thia-3,5,8-triazaacenaphthylene-2-carboxamide], the “BTK_I_binding pIC50” value amounted to 6.66.

Turning to `CCC(=O)N[C@@H]1CCC[C@H]1NC(=O)c1sc2nccc3c2c1NC(=O)N3c1ccc(Oc2ccccc2)cc1C` [Example 26, 5-(2-Methyl-4-phenoxyphenyl)-4-oxo-N-((1R,2R)-2-propionamidocyclopentyl)-4,5-dihydro-3H-1-thia-3,5,8-triazaacenaphthylene-2-carboxamide], the “BTK_I_binding pIC50” value is recorded as 6.69.

Take `Cc1cc(Oc2ccccc2)ccc1N1C(=O)Nc2c(C(=O)NC3CCCC3)sc3nccc1c23` [Example 28, N-Cyclopentyl-5-(2-methyl-4-phenoxyphenyl)-4-oxo-4,5-dihydro-3H-1-thia-3,5,8-triazaacenaphthylene-2-carboxamide]: the “BTK_I_binding pIC50” value is given as 6.67.

Consider `Cc1cc(Oc2ccccc2)ccc1N1C(=O)Nc2c(C(=O)N[C@@H]3CCC[C@H]3N(C)C)sc3nccc1c23` [Example 29, N-((1R,2R)-2-(Dimethylamino)cyclopentyl)-5-(2-methyl-4-phenoxyphenyl)-4-oxo-4,5-dihydro-3H-1-thia-3,5,8-triazaacenaphthylene-2-carboxamide], for which the “BTK_I_binding pIC50” value is 6.81.
